Several values for one entry are separate records, joined by “and”; a condition that tells them apart may be missing. Identical values can stand only once.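 Briefly, cells in 96-well plates were exposed to five compound concentrations for 48 h, and endpoints were estimated by linear interpolation. GI50 is the concentration that inhibits growth by half. TGI denotes the concentration required for complete inhibition of growth.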
Key:
Assay in all cases: inhibition of tumour cell growth, NCI panel, 48 h
ACHN renal = test system: ACHN renal
BT-549 breast = test system: BT-549 breast
IGROV1 ovarian = test system: IGROV1 ovarian
MCF7 breast = test system: MCF7 breast
NCI-H23 lung = test system: NCI-H23 lung
NCI-H460 lung = test system: NCI-H460 lung
OVCAR-4 ovarian = test system: OVCAR-4 ovarian
OVCAR-8 ovarian = test system: OVCAR-8 ovarian
PC-3 prostate = test system: PC-3 prostate
SNB-75 CNS = test system: SNB-75 CNS

SMILES | GI50 (ACHN renal) | TGI (ACHN renal) | GI50 (BT-549 breast) | TGI (BT-549 breast) | GI50 (IGROV1 ovarian) | TGI (IGROV1 ovarian) | GI50 (MCF7 breast) | TGI (MCF7 breast) | GI50 (NCI-H23 lung) | TGI (NCI-H23 lung) | GI50 (NCI-H460 lung) | TGI (NCI-H460 lung) | GI50 (OVCAR-4 ovarian) | TGI (OVCAR-4 ovarian) | GI50 (OVCAR-8 ovarian) | TGI (OVCAR-8 ovarian) | GI50 (PC-3 prostate) | TGI (PC-3 prostate) | GI50 (SNB-75 CNS) | TGI (SNB-75 CNS)
COc1ccc(-n2c(=S)sc3c(Cl)nc(C)nc32)c(OC)c1 | 2.08 µM | 3.97 µM | 1.99 µM | 4.28 µM | 1.93 µM | 3.99 µM | 3.67 µM | 15.6 µM | 2.44 µM | 5.87 µM | 3.12 µM | 9.04 µM | 4.73 µM | 15.6 µM | 2.66 µM | 7.4 µM | 2.37 µM | 5.91 µM | 1.97 µM | 4.26 µM
N#C/C(=C\c1ccc2[nH]ccc2c1)C(=O)NCCCCNC(=O)/C(C#N)=C/c1ccc2[nH]ccc2c1 |  | > 31.6 µM |  | > 10 µM |  | > 31.6 µM |  | > 10 µM |  | > 31.6 µM |  | > 31.6 µM |  | > 31.6 µM |  | > 31.6 µM |  | > 10 µM |  | > 31.6 µM
COc1cc(N2C(=O)[C@H](Cl)C2c2ccc(SC)cc2)cc(OC)c1OC (stereo partly drawn) | 0.061 µM | 71.3 µM | 0.0989 µM | 0.748 µM | 0.0672 µM | > 100 µM | 0.0356 µM | > 100 µM | 0.121 µM | > 100 µM | 0.362 µM | 11.6 µM | 0.0647 µM | > 100 µM | 0.226 µM | > 100 µM | 0.0952 µM | > 100 µM | 0.0236 µM | > 100 µM
COC(=O)C(C(=O)C(=O)Nc1c(C)cccc1C(C)(C)C)c1nc2ccc(Cl)cc2[nH]c1=O (stereo not drawn) |  | > 100 µM |  | > 100 µM |  | > 100 µM |  | > 100 µM |  | > 100 µM |  | > 100 µM |  | > 100 µM |  | > 100 µM |  | > 100 µM |  | > 100 µM
Oc1ccc(Cl)cc1C=Nc1cnc2ccccc2c1 |  | > 100 µM |  | > 100 µM |  | > 100 µM |  | > 100 µM |  | > 100 µM |  | > 100 µM |  | > 100 µM |  | > 100 µM |  | > 88.4 µM |  | > 87.6 µM
Cc1cccc(C2NC(=O)c3ccccc3N2)c1 (stereo not drawn) |  | > 100 µM |  | > 100 µM |  | > 100 µM |  | > 100 µM |  | > 54.7 µM |  | > 100 µM |  | > 100 µM |  | > 100 µM |  | > 100 µM |  | > 100 µM
CC(C)C[C@@H](N)[C@@H](O)C(=O)N[C@H](C(=O)N[C@H](C(=O)N[C@@H](CC(=O)O)C(=O)O)C(C)C)C(C)C | > 20 µM | > 20 µM | > 20 µM | > 20 µM | > 20 µM | > 20 µM | > 20 µM | > 20 µM | > 20 µM | > 20 µM | > 20 µM | > 20 µM | > 20 µM | > 20 µM | > 20 µM | > 20 µM | > 20 µM | > 20 µM | > 20 µM | > 20 µM
C[C@@H]1C[C@@H]([C@H](O)CC2CC(=O)NC(=O)C2)C(=O)[C@@H](C)C1 | 0.155 µM |  | 0.927 µM | 9.01 µM | 0.388 µM | 15 µM and 3.15 µM | 0.216 µM | 7.15 µM | 0.274 µM | 4.78 µM and 0.941 µM | 0.234 µM |  | 0.299 µM | 4.97 µM and 1.2 µM | 0.202 µM | 1.7 µM and 1.27 µM | 0.243 µM | 4.51 µM | 0.333 µM | 4.93 µM and 1.43 µM

— PubChem BioAssay (NCI)
